Laboratory results as given in US20130225629A1, “TARGETING PI3K/MTOR SIGNALLING AND NEUTROPHIL RECRUITMENT FOR TREATMENT OF ENTERITIS” (THE UNIVERSITY OF NORTH CAROLINA AT CHAPEL HILL, priority 2012, published 2013).

What was measured:
C. jejuni = format: in vivo, mice
Excerpt: All animal protocols were approved by the Institutional Animal Care and Use Committee of the University of North Carolina at Chapel Hill (Chapel Hill, N.C., United States of America). Germ-free 8 to 12 week old II10^−/−; NF-κBEGFP (129/SvEv; C57BL/6 mixed background) mice were transferred from germ-free isolators and immediately gavaged with 10^9 C. jejuni cfu/mouse (strain 81-176 (Korlath et al., 1985)). Mice were then housed under Specific Pathogen-Free (SPF) conditions and sacrificed at 5 or 12 days. Germ-free II10^−/−; NF-κB^EGFP mice were also gavaged with 10^7 Salmonella typhimurium (S. typhimurium strain CA32) cfu/mouse for 2 days or 10^7 Escherichia coli (E. coli strain NC 101) cfu/mouse for 12 days. Conventionally-derived II10^−/−; NF-κB^EGFP mice were put on an antibiotic cocktail (streptomycin 2 g/L, gentamycin 0.5 g/L, bacteriocin 1 g/L and ciprofloxacin 0.125 g/L) in water for 7 days and antibiotics withdrawn 24 hours prior to infection. The mice were then gavaged with 10^9 C. jejuni cfu/mouse for 14 days. To inhibit mTOR signaling, mice were injected daily intraperitoneally (i.p.) with rapamycin (1.5 mg/kg) (Fisher Scientific, Hampton, N.H., United States of America). At the end of the experiment, mice were euthanized using CO2 intoxication. Colon, mesenteric lymph nodes (MLN) and spleen were collected for further processing RNA, protein or C. jejuni culture on Campylobacter selective blood plates (Remel, Thermo Scientific, Hampton, N.H., United States of America) for 48 h at 37° C. using the GasPak system (Becton Dickinson, Franklin Lakes, N.J., United States of America). […] Colons were fixed in 10% buffered formalin (Fisher Scientific, Hampton, N.H., United States of America) overnight, paraffin-embedded, sectioned, and stained with H&E for histological evaluation. Images were acquired using a DP71 camera and DP Controller 3.1.1.276 (Olympus, Center Valley, Pa., United States of America). Intestinal inflammation was scored by evaluating the degree of lamina propria immune cell infiltration, goblet cell depletion, architectural distortion, as well as crypt hyperplasia, ulceration, and abscesses using a score from 0-4. (Lippert et al., 2009). Cecal and colonic inflammation induced by S. typhimurium was evaluated using a score from 0-13 as described. (Hapfelmeier et al., 2005).
MLN and spleen were aseptically resected. Colon tissue was opened, resected and washed three times in sterile PBS. […] C. jejuni colonies were counted and data presented as colony forming unit (cfu)/g tissue.

CMT-93 cells = experiment: C. jejuni epithelial cell translocation assay (transwell); format: cell-based, Murine; details: 10 μM AS252424, transwell, up to 5 hrs
Method: Murine rectal carcinoma epithelial CMT-93 cells (1×10^6) were plated onto 12-well Transwells (Corning Inc., Corning, N.Y., United States of America) in DMEM media containing 10% FBS and 2 mM L-glutamine. Upon reached confluency (monolayer), the medium was changed to 1% FBS medium and 10^8 C. jejuni was added to the upper inserts in presence or absence of 10 μM AS252424. Aliquot of medium from bottom wells was collected every hr for 5 hrs, serially diluted and cultured on Remel (Remel, Thermo Scientific, Hampton, N.H., United States of America) plates as described before (Sun et al., 2012). Translocated C. jejuni was reported as CFU/ml at each time point.

neutrophils (MPO) = experiment: Myeloperoxidase (MPO) immunohistochemistry of colon, neutrophil infiltration; format: in vivo, mice; details: in the presence of AS252424
Method: Deparaffinized colon sections were treated with 3% H2O2 for 10 minutes to quench endogenous peroxidases. Antigen retrieval was performed using microwave heating for 10 min in 10 mM citrate buffer pH 6.0. Sections were blocked in 5% goat serum TBS-T for 1 hour. The slides were incubated overnight at 4° C. with an anti-MPO antibody (1:400) (Thermo Scientific, Hampton, N.H., United States of America). Secondary biotinylated antibody was diluted at 1:1000 with the VECTASTAIN® ABC Elite Kit (Vector Laboratories, Inc., Burlingame, Calif., United States of America). Visualization was performed using DAB chromogen (Dako, Inc., Carpinteria, Calif., United States of America). Finally, sections were counterstained with hematoxylin for 5 seconds. Sections were imaged at the OLYMPUS® microscope using DP 71 camera and DP Controller 3.1.1.276 (Olympus, Center Valley, Pa., United States of America).
Neutrophils in intestinal tissue were detected using anti-myeloperoxidase (MPO) IHC as described previously (Sun et al., 2012). Briefly, intestinal tissue sections were deparaffinized, blocked and incubated with an anti-MPO antibody (1:400; Thermo Scientific, Hampton, N.H., United States of America) overnight. […]

O=C1NC(=O)/C(=C/c2ccc(-c3ccc(F)cc3O)o2)S1 [AS252424]
levels of viable C. jejuni in the spleen (C. jejuni; AS252424 vs infected vehicle-treated mice): strongly reduced
decrease of viable C. jejuni in MLN (C. jejuni; mouse, in vivo): 90%
decrease of viable C. jejuni in colon (C. jejuni; mouse, in vivo): 97%
C. jejuni translocation across CMT-93 monolayer (CMT-93 cells): did not prevent
C. jejuni-induced neutrophil infiltration into colonic tissues (MPO staining) (neutrophils (MPO)): strongly reduced
